Entries after “also recorded” stand apart in the source; their conditions may differ.
Assays:
[1] = system: patients with autistic regression and abnormal EEG; assay: Thalidomide in patients with autistic regression and abnormal EEG
[2] = system: patient with co-morbid autism condition and inflammatory colitis; assay: Co-morbid autism condition in a single patient treated with infliximab; format: in vivo, human; details: in just days of treatment
Source text: This patient regressed and became autistic […] with the onset of their inflammatory colitis condition becoming clinically obvious at a later date.

[3] = system: patients diagnosed with an autism spectrum condition; assay: Clinical language, social skills, CARS and EEG outcome in the lenalinomide study; format: in vivo, human
Interleukin-1β = assay: Serum Interleukin-1β levels with lenalidomide outside of the study; format: in vivo, human; details: 2.5 to 10 mg; 2 subjects; 12 to 24 weeks of therapy
TNF-α = TNF-α levels in CSF and serum of autism spectrum patients treated with lenalinomide; format: in vivo, human
autism spectrum subjects = assay: Clinical improvement with lenalidomide outside of the study; format: in vivo, human; details: 2.5 to 10 mg; four subjects outside of the study
[4] = system: test subjects with autism spectrum condition; assay: L-Carnosine in test subjects with autism spectrum condition (language, CARS); format: in vivo, human
[5] = 25 to 50 mg per day for 2 to 4 months, six patients
[6] = after 4 to 12 weeks off the medication
[7] = 2.5 mg per day, in 6 to 12 weeks, four patients with TNF-α CSF elevation over serum levels

With `O=C1CCC(N2C(=O)c3ccccc3C2=O)C(=O)N1` (stereo not shown) [Thalidomide] the EEG [1, 5] was “improved”, the clinical global improvement [1, 5] was “clinical global improvement occurred” and the “clinical state of patients with autistic regression and abnormal EEG” value ([1]; patients who previously showed immune partial response to oral or injectable corticosteroids) was “improvement”.

Infliximab was tested, and the co-morbid autism condition [2] was “improvement”.

With `Nc1cccc2c1CN(C1CCC(=O)NC1=O)C2=O` (stereo not shown) [Lenalinomide] the “EEG in patients with abnormal EEG” value ([3]; 2.5 mg per day) was “showed improvement; also recorded: may have improved”, the “patients with elevated TNF-α levels in CSF and serum improved over baseline clinically” value ([3]; 2.5 mg per day (4/6 of completed study)) was “four out of four” and the “CGI rating scale for language expression” value ([3]; 2.5 mg per day, FIG. 2a) was “Improvement”. The “CGI rating scale for receptive language” value ([3]; 2.5 mg per day, FIG. 2b) was “Improvement”, the “CGI rating scale for social skills” value ([3]; 2.5 mg per day, FIG. 3) was “Improvement” and the “neuropsychological testing, receptive one-word test” value ([3]; 2.5 mg per day, FIG. 4a) was “Improvement”. The “neuropsychological testing, expressive one-word test” value ([3]; 2.5 mg per day, FIG. 4b) was “Improvement”, the “Childhood Autism Rating Scale Scores (CARS)” value ([3]; 2.5 mg per day, four patients) was “improved” and the language skills ([3]; 2.5 mg per day, four patients) was “improved”. For the same molecule, the social skills ([3]; 2.5 mg per day, four patients) was “improved”, the “skills after withdrawal of the medication” value [3, 6] was “regressed” and the “clinical state when medication was re-introduced” value ([3]; re-introduced at 2.5 to 5 mg per day, three patients) was “improved”. The “Interleukin-1β levels in serum” value (Interleukin-1β) was “lower”, the “levels of TNF-α in CSF” value (TNF-α; [7]) was “lowered levels” and the “levels of TNF-α in serum” value (TNF-α; [7]) was “lowered levels”. For the same molecule, the “TNF-α levels in serum after withdrawal of the medication” value (TNF-α; [6]) was “increased”, the “CSF and serum ratios of TNF-α and other inflammatory cytokines” value (TNF-α; when TNF-α is elevated in an inflammatory response) was “lowering” and the clinical improvement (autism spectrum subjects) was “great clinical improvement”.

In the case of `NCCC(=O)N[C@@H](Cc1cnc[nH]1)C(=O)O` [L-Carnosine], the “language function, receptive one word vocabulary testing scores” value ([4]; 800 mg per day, after 6 and 12 weeks of treatment, compared to placebo) is reported as “improvement”, the CARS scores ([4]; 800 to 1000 mg, over 8 weeks) is reported as “CARS scores improvement” and the language ([4]; 800 to 1000 mg, over 8 weeks) is reported as “language improvement”.

Reference: US9265755B2, “Stem cell administration to reduce TNF-α level in CSF of an autism spectrum disorder or pervasive development disorder patient” (priority 2009, dated 2016)
